Experimental findings from patent US20240239788A1, “SMALL MOLECULE INHIBITORS OF KRAS G12D MUTANT” (Merck Sharp & Dohme LLC, priority 2021, published 2024) are described below.

The subject of test [1] is AsPC-1 cells containing homozygous KRAS-G12D activating mutation. Briefly: Cellular phospho-ERK assay (Examples 1a-106). It is filed as cell-based. The conditions noted are these: AsPC-1 cells, 2 hours, ratio of p-Erk vs total Erk, read-out: IC50 (nM) pERK (Cell). The text has this: 5% CO? overnight. […] Assay plates were read on a EnVision Multimode Plate Reader (PerkinElmer) and the ratio of p-Erk vs total Erk in each well was used as the final readout.

Test [2] deals with KRAS protein containing G12D mutation (Homo sapiens (Human), UniProt P01116, G12D). As to the kind of experiment: SOS-catalyzed nucleotide exchange assay (GNE), TR-FRET. It is filed as biochemical. As to conditions: biotinylated KRAS G12D, SOS and GTP, 60-minute incubation. The method, then: Compounds are added to this complex and then after a 60-minute incubation time the mixture is treated with SOS and unlabeled GTP. Small molecule inhibitors stabilize the Bodipy-GDP complex whereas the untreated protein rapidly exchanges Bodipy-GDP for unlabeled GTP resulting in reduced TR-FRET signal.
This solution is referred to as biotinylated KRAS G12D stock solution.
(In TR-FRET formats the signal depends on donor and acceptor labels being close together.)

Read-outs that look alike come from different tables or passages of the source.

Chain of KRAS protein containing G12D mutation (P01116 other isoform, or with tags, fused parts or gaps G12D (already in the parent)): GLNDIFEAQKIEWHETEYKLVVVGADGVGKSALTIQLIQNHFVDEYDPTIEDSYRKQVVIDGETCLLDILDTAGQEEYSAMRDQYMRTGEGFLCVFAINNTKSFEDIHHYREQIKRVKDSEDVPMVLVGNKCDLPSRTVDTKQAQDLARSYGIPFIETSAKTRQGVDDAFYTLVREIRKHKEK

With `Cc1cc2[nH]ncc2c(-c2c(F)cc3c(N4C[C@H]5CC[C@@](C)(C4)N5)nc(OC[C@]4(CN(C)C)CC4(F)F)nc3c2F)c1C(F)(F)F` (single isomer, unassigned) [Ex 76b], the concentration for half-maximal inhibition (IC50) in test [1] is 4530 nM; in test [2] it was 597 nM.

For `C[C@]12CC[C@H](CN(c3nc(OCC4(CN5CCOCC5)CC4)nc4c(F)c(-c5c(F)cc(F)c6ccc(N)nc56)c(Cl)cc34)C1)N2` (single isomer, unassigned) [Ex. 91b], the IC50 amounted to 4160 nM in test [1] and 1020 nM in test [2].

Consider `CNc1nc2c(-c3c(Cl)cc4c(N5CC6CCC(C5)N6)nc(OCC5(CN6CCOCC6)CC5)nc4c3F)ccc(F)c2s1` [Example 51, 4-(4-(3,8-diazabicyclo[3.2.1]octan-3-yl)-6-chloro-8-fluoro-2-((1-(morpholinomethyl)cyclopropyl)methoxy)quinazolin-7-yl)-7-fluoro-N-methylbenzo[d]thiazol-2-amine], for which the 50% inhibitory concentration (IC50) in test [1] (Homo sapiens, ASPC1, 2 h) came to 11200 nM; in test [2] it was 3930 nM.

Turning to `CC[C@H]1[C@@H]2CC[C@@H](CN2)N1c1nc(OCC2(CN(C)C)CC2)nc2c(F)c(-c3cc(O)cc4ccccc34)c(F)cc12` [Example 9, 4-(2-((1-((dimethylamino)methyl)cyclopropyl)methoxy)-4-((1S,3S,4S)-3-ethyl-2,5-diazabicyclo[2.2.2]octan-2-yl)-6,8-difluoroquinazolin-7-yl)naphthalen-2-ol], the half-maximal inhibitory concentration (IC50) was found to be 13600 nM in test [1] (Homo sapiens, ASPC1, 2 h) and 1330 nM in test [2].

As for `CN(C)CC1(COc2nc(N3C[C@H]4N[C@@](C)(C[C@@H]4O)C3)c3cc(Cl)c(-c4cc(O)cc5ccccc45)c(F)c3n2)CC1` [Example 44, (1S,5R,6S)-3-(6-chloro-2-((1-((dimethylamino)methyl)cyclopropyl)methoxy)-8-fluoro-7-(3-hydroxynaphthalen-1-yl)quinazolin-4-yl)-1-methyl-3,8-diazabicyclo [3.2.1]octan-6-ol], the IC50 in test [1] (Homo sapiens, ASPC1, 2 h) came out at 13900 nM; in test [2], 1160 nM.

Consider `Cc1c(Cl)cc2[nH]ccc2c1-c1c(F)cc2c(N3CC4CCC(C3)N4)nc(OCC3(CN(C)C)CC3)nc2c1F` [Ex 73, 1-(1-(((4-(3,8-diazabicyclo[3.2.1]octan-3-yl)-7-(6-chloro-5-methyl-1H-indol-4-yl)-6,8-difluoroquinazolin-2-yl)oxy)methyl)cyclopropyl)-N,N-dimethylmethanamine], for which the IC50 in test [1] (Homo sapiens, ASPC1, 2 h) was found to be 14000 nM; in test [2], 1250 nM.

As for `Cc1cc2[nH]ncc2c(-c2c(F)cc3c(N4CC5CCC(C4)N5)nc(OCC4(CN(C)C)CC4(F)F)nc3c2F)c1C` (single isomer, unassigned) [Example 66b, 1-(1-(((4-(3,8-diazabicyclo [3.2.1]octan-3-yl)-7-(5,6-dimethyl-1H-indazol-4-yl)-6,8-difluoroquinazolin-2-yl)oxy)methyl)-2,2-difluorocyclopropyl)-N,N-dimethylmethanamine], the IC50 in test [1] came to 2120 nM; in test [2] it was 31.1 nM.

Turning to `CN(C)C1CC[C@H]2C[C@@]12COc1nc(N2C[C@H]3CC[C@@](C)(C2)N3)c2cc(F)c(-c3cc(O)cc4ccccc34)c(F)c2n1` (single isomer, unassigned) [Example 12b], the values for the IC50 in test [1] and in test [2] were 841 nM and 2.07 nM, respectively.

For the compound `CN(C)C[C@@]1(COc2nc(N3C[C@H]4CC[C@@](C)(C3)N4)c3cc(Cl)c(-c4c(F)cc(F)c5ccc(N)nc45)c(F)c3n2)CC1(F)F` (single isomer, unassigned) [92a], the values for the IC50 in test [1] and in test [2] were 13200 nM and 11100 nM, respectively.

As for `O=C(O)C1CC1COc1nc(N2CC3CCC(C2)N3)c2cc(F)c(-c3cc(O)cc4ccccc34)c(F)c2n1` (stereo not drawn) [Example 13, 2-(((4-(3.8-diazabicyclo[3.2.1]octan-3-yl)-6,8-difluoro-7-(3-hydroxynaphthalen-1-yl)quinazolin-2-yl)oxy)methyl)cyclopropane-1-carboxylc acid], the figures for the IC50 in test [1] and in test [2] were 50800 nM and 5880 nM, respectively.

Take `COCC12CCC(CN(c3nc(OCC4(CN(C)C)CC4)nc4c(F)c(-c5cc(O)cc6ccccc56)c(Cl)cc34)C1)N2` (stereo not drawn) [Example 37, 4-(6-chloro-2-((1-((dimethylamino)meth-yl)cyclopro-pyl)methoxy)-8-fluoro-4-(1-(methoxy-methyl)-3,8-diazabicyclo[3.2.1]oc-tan-3-yl)quinazolin-7-yl)naphthalen-2-ol]: the IC50 came out at 16700 nM in test [1] (Homo sapiens, ASPC1, 2 h) and 571 nM in test [2].

As for `C[C@]12CC[C@H](CN(c3nc(OCC4(CN5CCOCC5)CC4)nc4c(F)c(-c5c(F)cc(F)c6ccc(N)nc56)c(Cl)cc34)C1)N2` (single isomer, unassigned) [Ex. 91a], the IC50 in test [1] amounted to 17600 nM; in test [2] it was 11100 nM.

On to `CN(C)CC1(COc2nc(N3CC4CC(C#N)C(C3)N4)c3cc(F)c(-c4cc(O)cc5ccccc45)c(F)c3n2)CC1` (stereo not drawn) [Example 28, 3-(2-((1-((dimethylamino)meth-yl)cyclopro-pyl)methoxy)-6,8-difluoro-7-(3-hydroxynaphthalen-1-yl)quinazolin-4-yl)-3,8-diazabicyclo[3.2.1]oc-tane-6-carbontrile], for which the IC50 in test [1] (Homo sapiens, ASPC1, 2 h) came to 50800 nM; in test [2], 7450 nM.

Turning to `CN(C)C[C@@]1(COc2nc(N3C[C@]4(C)CC[C@H]3CN4)c3cc(F)c(-c4cc(O)cc5ccccc45)c(F)c3n2)CC1(F)F` [Ex 83, 4-(2-(((R)-1-((dimethylamino)methyl)-2,2-difluorocyclopropyl)methoxy)-6,8-difluoro-4-((1S,4S)-4-methyl-2,5-diazabicyclo [2.2.2]octan-2-yl)quinazolin-7-yl) naphthalen-2-ol], the IC50 in test [1] (Homo sapiens, ASPC1, 2 h) was 640 nM; in test [2] it was 2.72 nM.

Consider `CN(C)CC1(COc2nc(N3CC4CC(O)C(C3)N4)c3cc(Cl)c(-c4cc(O)cc5ccccc45)c(F)c3n2)CC1` (single isomer, unassigned) [Example 22a, 3-(6-chloro-2-((1-((dimethyl-amino)methyl)cyclo-propy)methoxy)-8-fluoro-7-(3-hydroxy-naphthalen-1-yl)quinazolin-4-yl)-3,8-diazabicyclo[3.2.1]oc tan-6-ol], for which the figures for the IC50 in test [1] and in test [2] were 50800 nM and 5090 nM, respectively.

For `Nc1nc2c(F)ccc(-c3c(Cl)cc4c(N5CC6CCC(C5)N6)nc(OCC5(CN6CCOCC6)CC5)nc4c3F)c2s1` [Example 54, 7-(4-(3,8-diazabicyclo[3.2.1]octan-3-yl)-6-chloro-8-fluoro-2-((1-(morpholinomethyl)cyclopropyl)methoxy)quinazolin-7-yl)-4-fluorobenzo[d]thiazol-2-amine], the IC50 in test [1] (Homo sapiens, ASPC1, 2 h) came out at 14100 nM; in test [2], 2650 nM.

With `C=C[C@@H]1[C@@H]2CC[C@@H](CN2)N1c1nc(OCC2(CN(C)C)CC2)nc2c(F)c(-c3cc(O)cc4ccccc34)c(F)cc12` [Example 6b, 4-(2-((1-((dimethylamino)methyl)cyclopropyl)methoxy)-6,8-difluoro-4-((1S,3R,4S)-3-vinyl-2,5-diazabicyclo[2.2.2]octan-2-yl)quinazolin-7-yl)naphthalen-2-ol], the IC50 in test [1] (Homo sapiens, ASPC1, 2 h) came out at 5500 nM; in test [2] it was 426 nM.

For `CN(C)C1CC[C@H]2C[C@@]12COc1nc(N2C[C@H]3CC[C@@](C)(C2)N3)c2cc(F)c(-c3cc(O)cc4ccccc34)c(F)c2n1` (single isomer, unassigned) [Example 12a], the IC50 in test [1] was 396 nM; in test [2], 1.89 nM.

For `CN(C)CC1(COc2nc(N3CC4CC(C)(O)C(C3)N4)c3cc(F)c(-c4cc(O)cc5ccccc45)c(F)c3n2)CC1` (stereo not drawn) [Example 27, 3-(2-((1-((dimethylamino)meth-yl)cyclopro-pyl)methoxy)-6,8-difluoro-7-(3-hydroxynaphthalen-1-yl)quinazolin-4-yl)-6-methyl-3,8-diazabicyclo [3.2.1]octan-6-ol], the IC50 in test [1] (Homo sapiens, ASPC1, 2 h) came to 22500 nM; in test [2], 496 nM.

Regarding `CN(C)CC1(COc2nc(N3CC4CCC(C3)N4)c3cc(Cl)c(-c4cc(O)ccc4C45CC(C4)C5)c(F)c3n2)CC1` [Example 47, 3-(4-(3,8-diazabicyclo[3.2.1]octan-3-yl)-6-chloro-2-((1-((dimethylamino)methyl)cyclopropyl)methoxy)-8-fluoroquinazolin-7-yl)-4-(bicyclo[1.1.1]pentan-1-yl)phenol], the IC50 in test [1] (Homo sapiens, ASPC1, 2 h) was 5790 nM; in test [2], 551 nM.

As for `Oc1cc(-c2c(F)cc3c(N4CC5CC(F)C(C4)N5)nc(OCC4(CN5CCOCC5)CC4)nc3c2F)c2ccccc2c1` (single isomer, unassigned) [Ex. 3a, 4-(6,8-difluoro-4-(6-fluoro-3,8-diazabicyclo[3.2.1]octan-3-yl)-2-((1-(morpholinomethyl)cyclopropyl)methoxy)quinazolin-7-yl)naphthalen-2-ol], the IC50 worked out at 3610 nM in test [1] and 506 nM in test [2].

Regarding `Cc1c(Cl)cc2[nH]nc(C)c2c1-c1c(F)cc2c(N3CC4CCC(C3)N4)nc(OCC3(CN4CC[C@@H](F)C4)CC3)nc2c1F` (single isomer, unassigned) [Ex 71b], the IC50 in test [1] turned out to be 4240 nM; in test [2] it was 1340 nM.

Regarding `CC1CC2CN(c3nc(OCC4(CN(C)C)CC4)nc4c(F)c(-c5cc(O)cc6ccccc56)c(F)cc34)CC1N2` (stereo not drawn) [Example 29, 4-(2-((1-((dimethyl-amino)methyl)cyclopro-pyl)methoxy)-6,8-difluoro-4-(6-methyl-3,8-diazabicyclo[3.2.1]oc-tan-3-yl)quinazolin-7-yl)naphthalen-2-ol], the IC50 in test [1] (Homo sapiens, ASPC1, 2 h) was determined as 11600 nM; in test [2], 705 nM.

Take `OCC1(COc2nc(N3CC4CCC(C3)N4)c3cc(F)c(-c4cc(O)cc5ccccc45)c(F)c3n2)CNC1` [Ex. 4, 4-(4-(3.8-diazabicyclo[3.2.1]octan-3-yl)-6,8-difluoro-2-((3-(hydroxymethyl)azetidin-3-yl)methoxy)quinazolin-7-yl)naphthalen-2-ol]: the IC50 in test [1] came to 50800 nM; in test [2], 169 nM.

By IC50 is commonly meant the concentration at which inhibition is half-maximal.
